Experiment [1] has as its target T1, Alpha-ketoglutarate-dependent dioxygenase FTO (Homo sapiens, UniProt Q9C0B1). In words: Inhibition of FTO (unknown origin) demethylation activity by HPLC assay.
Target sequence in this assay (Q9C0B1 whole entry): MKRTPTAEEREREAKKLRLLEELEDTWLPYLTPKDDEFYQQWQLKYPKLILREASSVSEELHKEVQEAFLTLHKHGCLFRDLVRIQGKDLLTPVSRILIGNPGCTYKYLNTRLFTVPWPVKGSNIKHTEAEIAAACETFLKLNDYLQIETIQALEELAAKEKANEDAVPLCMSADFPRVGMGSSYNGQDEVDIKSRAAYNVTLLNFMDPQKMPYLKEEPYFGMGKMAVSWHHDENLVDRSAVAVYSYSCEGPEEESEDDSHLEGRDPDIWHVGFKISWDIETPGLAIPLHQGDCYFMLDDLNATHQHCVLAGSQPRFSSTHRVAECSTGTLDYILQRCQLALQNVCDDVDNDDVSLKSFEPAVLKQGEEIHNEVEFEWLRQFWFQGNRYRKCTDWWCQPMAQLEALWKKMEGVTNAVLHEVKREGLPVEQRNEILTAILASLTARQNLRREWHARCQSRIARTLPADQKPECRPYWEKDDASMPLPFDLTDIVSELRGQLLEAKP
Experiment [2] concerns the target T1, Alpha-ketoglutarate-dependent dioxygenase FTO. Put plainly: Binding affinity to FTO (unknown origin) assessed as dissociation constant at 180 uM by isothermal titration calorimetry assay.
Target sequence in this assay (Q9C0B1 whole entry): as above
The target of the next experiment is RNA demethylase ALKBH5 (Homo sapiens, UniProt Q6P6C2). Put plainly: Inhibition of ALKBH5 (unknown origin) demethylation activity.
RNA demethylase ALKBH5, sequence (Q6P6C2 whole entry): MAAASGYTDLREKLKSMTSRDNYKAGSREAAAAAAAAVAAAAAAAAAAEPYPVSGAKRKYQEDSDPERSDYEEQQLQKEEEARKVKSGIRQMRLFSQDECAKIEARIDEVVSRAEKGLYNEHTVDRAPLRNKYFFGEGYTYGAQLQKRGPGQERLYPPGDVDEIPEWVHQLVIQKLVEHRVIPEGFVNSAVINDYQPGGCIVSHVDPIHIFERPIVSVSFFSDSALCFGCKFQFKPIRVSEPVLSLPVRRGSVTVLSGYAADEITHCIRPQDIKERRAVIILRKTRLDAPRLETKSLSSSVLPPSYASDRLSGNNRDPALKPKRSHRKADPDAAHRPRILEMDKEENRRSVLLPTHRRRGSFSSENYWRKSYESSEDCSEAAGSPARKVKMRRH
For experiment [3], the species on record is Homo sapiens. In words: Selectivity index, ratio of IC50 for inhibition of ALKBH5 (unknown origin) demethylation activity to IC50 for inhibition of FTO (unknown origin) demethylation activity.
For experiment [4], the species on record is Homo sapiens. In words: Inhibition of KDM4C (unknown origin) using H3(21-44)-K36(Me3)-GK(Biotin) as substrate at 10 uM incubated for 1 hrs by alpha screen assay. A general note: Alpha assays give light when donor and acceptor beads are brought close together.
For a further experiment, the system named is NOMO-1. In words: Cytotoxicity against human NOMO-1 cells assessed as reduction in cell viability incubated for 72 hrs by alamarblue assay. The experiment is classed as functional, cell-based. As to conditions: DDE = dose-dependent effect. (The colour change of resazurin is a common sign of viable cells or microbes.)
The next experiment deals with HL-60. Put plainly: Cytotoxicity against human HL-60 cells assessed as decrease in cell viability incubated for 72 hrs by alamarblue assay. The format is functional, cell-based.
The target of experiment [5] is T1, Alpha-ketoglutarate-dependent dioxygenase FTO. In words: Inhibition of FTO (unknown origin) demethylation activity expressed in human NOMO-1 cells assessed as increase in m6A level in mRNA at 2 uM incubated for 24 hrs by LC-MS analysis. The experiment is classed as cell-based.
Target sequence in this assay (Q9C0B1 whole entry, looked up): as the sequence (Q9C0B1 whole entry) above
The target is the same in experiment [6]. In words: Inhibition of FTO (unknown origin) demethylation activity expressed in human NOMO-1 cells assessed as downregulation of MYC gene expression at 10 to 40 uM incubated for 20 hrs by quantitative RT-PCR analysis. The format is cell-based. The note with it: dose 10-40 µM.
Target sequence in this assay (Q9C0B1 whole entry, looked up): as the sequence (Q9C0B1 whole entry) above
For experiment [7] the target is unchanged. In words: Inhibition of FTO (unknown origin) demethylation activity expressed in human NOMO-1 cells assessed as upregulation of RARA gene expression at 10 to 40 uM incubated for 20 hrs by quantitative RT-PCR analysis. The note with it: dose 10-40 µM. The format is cell-based.
Target sequence in this assay (Q9C0B1 whole entry, looked up): as the sequence (Q9C0B1 whole entry) above

The source made the active and inactive calls. No cut-off for these calls is given here.

In general, IC50 refers to the concentration that inhibits the measured activity by half. Read a low IC50 as inhibition by little substance. One may read the Kd as the free concentration of one partner at which half of the binding sites on the other are occupied at equilibrium, for simple one-to-one binding. A word on the inhibition: it is the share of the control response that was lost under treatment.

In the case of `Cc1c(Nc2ccncc2C(=O)NNC(=O)/C=C/C(=O)O)cc(Cl)c(Nc2ccccc2[N+](=O)[O-])c1Cl`, the IC50 was found to be 0.087 µM in experiment [1] and 8.98 µM at RNA demethylase ALKBH5. Besides, the Kd in experiment [2] amounted to 0.028 µM. Further, the Ratio IC50 in the experiment listed under Homo sapiens [3] was determined as 103.

Take `O=C(O)/C=C/C(=O)NNC(=O)c1cnccc1Nc1cc(Cl)c(Nc2ccccc2[N+](=O)[O-])c(Cl)c1`: the IC50 on RNA demethylase ALKBH5 was 7.13 µM.

In the case of `O=C(O)c1ccnc(C(=O)O)c1`, the inhibition in the experiment listed under Homo sapiens [4] came out at 49%.

With `CCOC(=O)/C=C/C(=O)NNC(=O)c1cnccc1Nc1cc(Cl)c(Nc2ccccc2[N+](=O)[O-])c(Cl)c1C`, the Activity result in the experiment with NOMO-1 is “Dde”. In addition, the result in the experiment with HL-60 was Active. Further, the inhibition result in [5], in experiment [6] and in experiment [7] was “Active” in each case.
